Measured values: patent US8536343B2, “Arylamidine derivative, salt thereof and antifungal agent containing those” (Toyama Chemical Co., Ltd., priority 2005, dated 2013)

Legend:
[1] = system: Aspergillus fumigatus IFM46895; assay: Murine Aspergillus infection model (oral administration); assay type: in vivo; settings: cyclophosphamide-compromised male mice; 10 mg/kg orally, 7 times; observed 21 days after infection
Method: As Test Compounds, the compound of Example 3 and Comparative Compound 1 were used.
(§1) Spores of Aspergillus fumigatus IFM46895 were cultured on a potato dextrose agar medium at 30° C. for a week. The recovered spores were suspended in a sterile physiological saline solution containing 0.05% Tween 80, which was then diluted to prepare an inoculum solution.
(§2) Male mice (4 week-old, 5 mice/group) were administered intraperitoneally with 200 mg/kg of cyclophosphamide 4 days before infection and 100 mg/kg on the following day after the infection to obtain transient compromised condition. Each 0.2 mL of the inoculum solution was inoculated into the tail vein of each mouse to induce infection (about 1×10^5 CFU/mouse). The Test Compounds were dissolved in a small amount of 0.1 mol/L hydrochloric acid, and the solution was diluted with a sterile distilled water to obtain a 1 mg/mL solution. The solution was administered orally at the dose of 10 mL/kg body weight of mouse (10 mg/kg body weight). The administrations were conducted once 2 hours after the infection and once daily for the following 6 days, totaling 7 times. To a group receiving no Test Compounds, an equal amount of a sterile physiological saline solution was administered. Viability of the mice was observed and recorded for 21 days after infection.

[2] = system: Vero cells; assay: Growth inhibition test on Vero cells (XTT); assay type: cell-based; settings: 50 μg/mL, 3 days culture, XTT absorbance versus control
Method: As Test Compounds, the compounds of Example 1 and Example 2 and Comparative Compound 1 were used.
The cytotoxicity of the compounds was evaluated using Vero cells. The respective Test Compounds were dissolved in dimethylsulfoxide (DMSO) to prepare solutions at 10 mg/mL. The solutions were diluted with E′MEM with 10% FBS to a final concentration of 50 μg/mL and placed onto a 96-well plate. The cells were suspended in E′MEM with 10% FBS and seeded onto the 96-well plate at 3000 cells/well and then cultured in a CO2 incubator at 37° C. for 3 days. The growth of Vero cells was evaluated by an assay using 2,3-bis-(2-methoxy-4-nitro-5-sulfophenyl)-5-[(phenylamino)carbonyl]-2H-tetrazolium (inner salt) monosodium salt (“XTT”). Namely, an XTT solution containing 1 mg/mL of XTT and 25 μmol/L of phenazine methosulfate (PMS) was added to each well. After incubating in a CO2 incubator for 2 hours, the absorbance at 450 nm (reference at 655 nm) of the respective wells was measured by a microplate reader. The T/C (%) was calculated from the absorbance ratios of the control (without the Compound) and the respective wells.

[3] = target: T1, human CYP2D6 (Homo sapiens, UniProt P10635); assay: Inhibitory effect on CYP2D6; assay type: in vitro ADME; settings: for IC50: microsome from insect cells expressing human CYP2D6, fluorescent substrate, 37° C. 30 min, 72 to 0.0329 μmol/L; for Inhibitory effect on CYP2D6 (in words): microsome from insect cells expressing human CYP2D6, 72 to 0.0329 μmol/L
T1 construct: host or cells: insect cells (microsomes)
Method: Inhibitory effects of the compound of Example 3, Comparative Compound 1, Comparative Compound 2 and Comparative Compound 3 on human hepatic drug-metabolizing enzyme CYP2D6 were compared. A microsome prepared from insect cells expressing human CYP2D6 was used, and a substrate was 3-[2-(N,N-diethyl-N-methylammonium)ethyl]-7-methoxy-4-methylcoumarin iodide. The reaction was conducted in a phosphate buffer solution (100 mmol/L, pH 7.4) including final concentrations of 20 nmol/L for the enzyme, 1.5 μmol/L for the substrate, 1.55 mmol/L for nicotinamide adenine dinucleotide phosphate oxidized form (NADP+), 3.3 mmol/L for glucose-6-phosphate, 3.3 mmol/L for magnesium chloride and 0.4 Units/mL for glucose-6-phosphate dehydrogenase (G6PDH). The concentrations of the respective compounds in the reaction solution were prepared in a 3-fold dilution series with a final concentration range of 72 to 0.0329 μmol/L. The reaction solutions were incubated at 37° C. for 30 min. Then the reaction was terminated by a 80% acetonitrile solution (containing tris at a final concentration of 0.1 mol/L), and the enzyme activity was determined by measuring fluorescence with wavelength of 465 nm using excitation wavelength of 400 nm. The inhibitory effect was expressed as IC50. Quinidine was used as a positive control.

[4] = target: T2, human CYP2C19 (Homo sapiens, UniProt P33261); assay: Inhibitory effect on CYP2C19; assay type: in vitro ADME; settings: microsome from insect cells expressing human CYP2C19, dibenzylfluorescein, 37° C. 30 min, 72 to 0.0329 μmol/L
T2 construct: host or cells: insect cells (microsomes)
Method: (§3) Inhibitory effects of the compound of Example 3 and Comparative Compound 1 on human hepatic drug-metabolizing enzyme CYP2C19 were compared. A microsome prepared from insect cells expressing human CYP2C19 was used. Dibenzylfluorescein was used as a substrate. The reaction was conducted in a phosphate buffer solution (100 mmol/L, pH 7.4) including final concentrations of 15 nmol/L for the enzyme, 1.0 μmol/L for the substrate, 1.55 mmol/L for nicotinamide adenine dinucleotide phosphate oxidized form (NADP+), 3.3 mmol/L for glucose-6-phosphate, 3.3 mmol/L for magnesium chloride and 0.4 Units/mL for glucose-6-phosphate dehydrogenase (G6PDH). The concentrations of the respective compounds in the reaction solution were prepared in a 3-fold dilution series with a final concentration range of 72 to 0.0329 μmol/L. The reaction solutions were incubated at 37° C. for 30 min. Then the reaction was terminated by a 2 mol/L sodium hydroxide aqueous solution, and the reactant was further incubated at 37° C. for 2 hours. The enzyme activity was determined by measuring fluorescence with wavelength of 535 nm using excitation wavelength of 485 nm. The inhibitory effect was represented as IC50. Tranylcypromine was used as a positive control.

[5] = target: T3, human CYP3A4 (Homo sapiens, UniProt P08684); assay: Inhibitory effect on CYP3A4; assay type: in vitro ADME; settings: microsome from insect cells expressing human CYP3A4, dibenzylfluorescein, 37° C. 15 min, 72 to 0.0329 μmol/L
T3 construct: host or cells: insect cells (microsomes)
Method: as §3, with “CYP3A4” for “CYP2C19”, “2.5” for “15”, “15” for “30”, “solution” for “reactant”, “expressed” for “represented”, “Clotrimazole” for “Tranylcypromine”

[6] = system: Candida albicans TIMM 1623; assay: Murine Candida infection model (subcutaneous administration); assay type: in vivo; settings: cyclophosphamide-compromised male mice; 0.1 mg/kg subcutaneously, 4 times; observed 21 days after infection
Method: (§4) As a Test Compound, the compound of Example 3 was used.
Male mice (4 week-old, 5 mice/group) were administered intraperitoneally with 200 mg/kg of cyclophosphamide 4 days before infection and 100 mg/kg on the following day after the infection to obtain transient compromised condition. Candida albicans TIMM 1623 cultured on SDA at 35° C. was suspended in a sterile physiological saline solution to prepare a suspension at 1.5×10^5 cells/mL. Each 0.2 mL of the solution was inoculated into the tail vein of each mouse to induce infection (about 3×10^4 CFU/mouse). The Test Compound was dissolved in a small amount of 0.1 mol/L hydrochloric acid, and the solution was diluted with a sterile physiological saline solution to obtain a 0.01 mg/mL solution. The solution was administered subcutaneously at the dose of 10 mL/kg body weight of mouse (0.1 mg/kg body weight). The administrations were conducted once 2 hours after the infection and once daily for the following consecutive 3 days, totaling 4 times. To a group receiving no Test Compound, an equal amount of a sterile physiological saline solution was administered. Viability of the mice was observed and recorded for 21 days after infection.

[7] = system: Aspergillus fumigatus IFM46895; assay: Murine Aspergillus infection model (subcutaneous administration); assay type: in vivo; settings: cyclophosphamide-compromised male mice; 0.3 mg/kg subcutaneously, 7 times; observed 21 days after infection
Method: as §4, §1
as §2, with “Test Compound was” for “Test Compounds were”, “sterile physiological saline solution” for “sterile distilled water”, “a 0.03” for “a 1”, “administered subcutaneously” for “administered orally”, “mouse (0.3” for “mouse (10”, “Test Compound,” for “Test Compounds,”

[8] = Repeated intravenous dose toxicity study in mice (plasma AST, ALT); assay type: in vivo; settings: ICR male mice, i.v. once daily for 3 days (25 mg/kg or 6.25 mg/kg), day 1 after completion; relative to saline control
Method: As Test Compounds, the compound of Example 3, Comparative Compound 2 and Comparative Compound 3 were used.
A repeated intravenous dose toxicity study was conducted using ICR strain male mice (6 week-old, 5 mice/group). The administration solutions were prepared by adding 3-fold molar amount of hydrochloric acid to the respective Test Compounds, and further adding a sterile physiological saline solution. The compounds of Example 3 and Comparative Compound 2, respectively at 25 mg/kg, and Comparative Compound 1 at 6.25 mg/kg were administered into the tail vein once daily for 3 days. To the control group, a sterile physiological saline solution was administered.
On day 1 after the completion of the administration, each mouse was etherized. Blood samples were taken from the abdominal vein using an injection syringe containing heparin as an anticoagulant (Novo-Heparin 1,000 units for injection, Aventis Pharma Ltd.), and the samples were centrifuged (3,300 rpm, 4° C., 10 min; Kubota Model 5900) to obtain the plasma. The blood biochemical tests with respect to aspartate aminotransferase (AST) and alanine aminotransferase (ALT) for the samples were conducted according to the JSCC consensus measuring method. The values for the Test Compounds and Comparative Compounds were calculated based on the values for the control (administration of a sterile physiological saline solution) as 100.

[9] = Acute toxicity study in mice (oral administration); assay type: in vivo; settings: male mice, 1000 mg/kg single oral dose
Method: A 100 mg/mL suspension of the compound of Example 3 was prepared with 0.1 mol/L hydrochloric acid. The Test Compound solution was orally administered to male mice (6 week-old, 2 mice/group) at 10 mL/kg (1000 mg/kg body weight) and the mice were observed until day 2 after administration.

[10] = Acute toxicity study in mice (intravenous administration); assay type: in vivo; settings: male mice, 50 mg/kg single intravenous dose
Method: The compound of Example 3 was dissolved in a small amount of 0.1 mol/L hydrochloric acid, and the solution was diluted with a sterile physiological saline solution to obtain a 5 mg/mL solution. The Test Compound solution was administered intravenously to male mice (4 week-old, 2 mice/group) at 10 mL/kg (50 mg/kg body weight) and the mice were observed until day 2 after administration.

T1 sequence (P10635 whole entry): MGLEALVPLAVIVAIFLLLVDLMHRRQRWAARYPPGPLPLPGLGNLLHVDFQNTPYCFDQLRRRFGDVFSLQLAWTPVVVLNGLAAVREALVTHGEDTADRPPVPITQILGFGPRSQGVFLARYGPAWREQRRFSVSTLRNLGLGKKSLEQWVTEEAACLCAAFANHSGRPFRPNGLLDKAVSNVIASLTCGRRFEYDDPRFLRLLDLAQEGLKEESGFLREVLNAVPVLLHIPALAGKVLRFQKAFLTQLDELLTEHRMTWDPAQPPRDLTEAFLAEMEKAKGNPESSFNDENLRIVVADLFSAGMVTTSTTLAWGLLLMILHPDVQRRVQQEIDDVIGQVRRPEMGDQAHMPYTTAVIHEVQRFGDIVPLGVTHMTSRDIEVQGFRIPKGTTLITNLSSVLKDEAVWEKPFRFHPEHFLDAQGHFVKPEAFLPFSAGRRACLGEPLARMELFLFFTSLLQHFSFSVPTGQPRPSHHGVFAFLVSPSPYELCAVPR
T2 sequence (P33261 whole entry): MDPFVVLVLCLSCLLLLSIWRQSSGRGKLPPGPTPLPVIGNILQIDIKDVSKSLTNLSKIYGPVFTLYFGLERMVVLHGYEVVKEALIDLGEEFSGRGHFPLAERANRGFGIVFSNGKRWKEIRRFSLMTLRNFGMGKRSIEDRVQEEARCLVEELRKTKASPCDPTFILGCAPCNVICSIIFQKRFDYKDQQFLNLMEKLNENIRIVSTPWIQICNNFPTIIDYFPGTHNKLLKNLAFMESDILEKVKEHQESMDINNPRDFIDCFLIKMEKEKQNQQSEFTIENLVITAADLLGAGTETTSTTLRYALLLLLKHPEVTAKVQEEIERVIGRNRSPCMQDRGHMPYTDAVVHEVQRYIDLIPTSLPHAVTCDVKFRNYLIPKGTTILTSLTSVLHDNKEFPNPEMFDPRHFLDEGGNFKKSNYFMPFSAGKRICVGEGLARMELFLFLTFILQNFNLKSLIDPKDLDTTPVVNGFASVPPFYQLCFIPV
T3 sequence (P08684 whole entry): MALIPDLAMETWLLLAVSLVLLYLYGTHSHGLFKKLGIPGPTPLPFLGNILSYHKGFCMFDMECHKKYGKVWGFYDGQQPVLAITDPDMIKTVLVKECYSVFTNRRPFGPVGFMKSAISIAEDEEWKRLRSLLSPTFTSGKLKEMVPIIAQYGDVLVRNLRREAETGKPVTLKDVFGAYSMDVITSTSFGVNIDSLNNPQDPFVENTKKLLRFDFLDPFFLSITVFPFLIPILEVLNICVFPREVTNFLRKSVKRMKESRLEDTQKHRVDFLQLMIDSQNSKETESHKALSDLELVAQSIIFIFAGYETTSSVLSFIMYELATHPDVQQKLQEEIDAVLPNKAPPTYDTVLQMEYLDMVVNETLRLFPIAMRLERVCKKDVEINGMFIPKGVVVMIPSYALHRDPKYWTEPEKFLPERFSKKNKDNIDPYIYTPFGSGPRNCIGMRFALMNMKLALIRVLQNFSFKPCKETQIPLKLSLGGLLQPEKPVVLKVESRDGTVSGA

Row | SMILES | mice survived [1] [%] | Cytotoxicity T/C (%) [2] [%] | IC50 [3] [µM] | IC50 [4] [µM] | IC50 [5] [µM] | ALT (alanine aminotransferase) in plasma [8] | AST (aspartate aminotransferase) in plasma [8] | Inhibitory effect on CYP2D6 (in words) [3] | other results
1 | N/C(=N\C(=O)OCc1ccccc1)c1ccc(OCCCN2CCN(CCCOc3ccc(/C(N)=N/C(=O)OCc4ccccc4)cc3)CC2)cc1 [Comparative Compound 1, reference compound] | 20 | 1 | 0.68 | 4.36 | 4.73 | – | – | – | –
2 | CCCCOC(=O)N=C(N)c1ccc(OCCCC2CCN(CCCOc3ccc(C(N)=NC(=O)OCCCC)cc3)CC2)cc1 [Example 3, 4-{3-[4-(3-{4-[amino(butoxycarbonylimino)methyl]phenoxy}propyl)-1-piperidinyl]propoxy}-N′-(butoxycarbonyl)benzamidine] | 80 | – | > 72 | > 72 | 45.4 | No abnormality | No abnormality | – | mice survived [6]: 80%; mice survived [7]: 60%; survival until day 2 after administration [9]: all mice survived; survival until day 2 after administration [10]: all mice survived
3 | CC(C)OC(=O)/N=C(\N)c1ccc(OCCCC2CCN(CCCOc3ccc(/C(N)=N/C(=O)OC(C)C)cc3)CC2)cc1 [Example 2, 4-{3-[4-(3-{4-[amino(isopropoxycarbonylimino)methyl]phenoxy}propyl)-1-piperidinyl]propoxy}-N′-(isopropoxycarbonyl)benzamidine] | – | 100 | – | – | – | – | – | – | –
4 | CCCOC(=O)/N=C(\N)c1ccc(OCCCC2CCN(CCCOc3ccc(/C(N)=N/C(=O)OCCC)cc3)CC2)cc1 [Example 1, 4-{3-[4-(3-{4-[amino(propoxycarbonylimino)methyl]phenoxy}propyl)-1-piperidinyl]propoxy}-N′-(propoxycarbonyl)benzamidine] | – | 100 | – | – | – | – | – | – | –
5 | CCCCCOC(=O)/N=C(\N)c1ccc(OCCCN2CCC(CCCOc3ccc(C(N)NC(=O)OCCCCC)cc3)CC2)cc1 (centres unmarked) [Comparative Compound 3] | – | – | – | – | – | increases | increases | inhibited human CYP2D6 | –
6 | CCOC(=O)/N=C(\N)c1ccc(OCCCC2CCN(CCCOc3ccc(/C(N)=N/C(=O)OCC)cc3)CC2)cc1 [Comparative Compound 2] | – | – | – | – | – | increases | increases | inhibited human CYP2D6 | –
